Assay results: US20250346600A1, “TRICYCLIC DERIVATIVES AND RELATED USES” (MOMA Therapeutics, Inc., priority 2023, published 2025)
Where two headings read alike, the source gives them in different places.

Tests used:
[1] = target: T1, Full length WRN protein (aa 2-1432) (Homo sapiens (Human), UniProt Q14191); test: WRN ATPase ADP-Glo biochemical assay, Assay Format A (10 μM ATP); conditions: 0.25 nM WRN, 100 nM C6.18 ssDNA, 30 min preincubation, read-out: ATPase ADPGlo AC50 (uM)- Assay Format A
Source text: Full length Werner helicase construct (Uniprot: Q14191) with an N-terminal FLAG-AVI-TEV tag was expressed using the Sf9 cell/baculovirus expression system. The harvested cell pellet was resuspended and lysed in a glass homogenizer. After insoluble material was removed by centrifugation, the helicase protein was first purified with FLAG affinity resin and then further purified through a size-exclusion chromatography column. Peak fractions containing the purified protein were concentrated, split into aliquots and frozen in liquid nitrogen to be thawed before use. Biochemical Assay Description (ATPase activity)-Assay Format A WRN activity was measured using an ATPase assay. Full length WRN protein (aa 2-1432) (production described separately) was used for the biochemical activity assays. The 39-mer ssDNA “C6.18” [NT] was purchased from IDT and used as a substrate. Quantification of ATP hydrolysis was evaluated using the ADP-Glo assay kit (Promega, Madison, WI). An enzyme titration time-course was performed to determine the optimal assay conditions. […] To evaluate the inhibitory effects of the compounds, 11-point 3-fold serial dilutions were prepared in DMSO. 50 nL of each concentration in duplicate was preincubated for 30 minutes in a 384-well microplate (Greiner #784075) with 5 μL of 0.5 nM WRN in assay buffer. The reaction was initiated by adding 5 μL of 200 nM C6.18 DNA with 20 μM ATP and was allowed to proceed for 30 minutes at room temperature. The reaction was stopped with 10 μL ADP-Glo reagent for 1 hour to remove unreacted ATP. Lastly, 20 μL ATP detection reagent was added and incubated for 1 hour to generate the luminescence signal. Control wells included “high controls” with no inhibition (DMSO, no compound) and “low controls” with maximum inhibition (no WRN). Luminescence was recorded on a PHERAstar (BMG Labtech, Ortenberg, Germany). Data was fit using the “Smart Fit” method within the Genedata Screener Software (Basel, Switzerland) to obtain IC50 values using four-parameter fits. Reported IC50s are the geometric means of at least two independent trials.

[2] = system: HT29 cells; test: HT29 (MSS) 7 day viability, CellTiter Glo; type: cell-based; conditions: 7 days, read-out: HT29 (MSS) Viability 7 Day CTGAbs AC50
Procedure, shortened: (§1)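 Luminescence read-out (CellTiter Glo) after 7-day compound exposure at 37 °C. Seeding density 50 cells/well for HCT116, 500 cells/well for HT29. Background from cell-free medium wells; IC50 by four-parameter logistic fit, geometric mean of at least 2 replicates.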

[3] = target: T1, Full length WRN protein (aa 2-1432); test: WRN ATPase ADP-Glo biochemical assay, Assay Format B (100 μM ATP); conditions: 0.25 nM WRN, 100 nM C6.18 ssDNA, 60 min preincubation, read-out: ATPase ADPGlo AC50 (uM)- Assay Format B
[4] = system: HCT116 cells; test: HCT116 (MSI) 7 day viability, CellTiter Glo; type: cell-based; conditions: 7 days, read-out: HCT116 (MSI) Viability 7 Day Abs AC50
Procedure, shortened: as §1

T1 sequence (Q14191 2-1432): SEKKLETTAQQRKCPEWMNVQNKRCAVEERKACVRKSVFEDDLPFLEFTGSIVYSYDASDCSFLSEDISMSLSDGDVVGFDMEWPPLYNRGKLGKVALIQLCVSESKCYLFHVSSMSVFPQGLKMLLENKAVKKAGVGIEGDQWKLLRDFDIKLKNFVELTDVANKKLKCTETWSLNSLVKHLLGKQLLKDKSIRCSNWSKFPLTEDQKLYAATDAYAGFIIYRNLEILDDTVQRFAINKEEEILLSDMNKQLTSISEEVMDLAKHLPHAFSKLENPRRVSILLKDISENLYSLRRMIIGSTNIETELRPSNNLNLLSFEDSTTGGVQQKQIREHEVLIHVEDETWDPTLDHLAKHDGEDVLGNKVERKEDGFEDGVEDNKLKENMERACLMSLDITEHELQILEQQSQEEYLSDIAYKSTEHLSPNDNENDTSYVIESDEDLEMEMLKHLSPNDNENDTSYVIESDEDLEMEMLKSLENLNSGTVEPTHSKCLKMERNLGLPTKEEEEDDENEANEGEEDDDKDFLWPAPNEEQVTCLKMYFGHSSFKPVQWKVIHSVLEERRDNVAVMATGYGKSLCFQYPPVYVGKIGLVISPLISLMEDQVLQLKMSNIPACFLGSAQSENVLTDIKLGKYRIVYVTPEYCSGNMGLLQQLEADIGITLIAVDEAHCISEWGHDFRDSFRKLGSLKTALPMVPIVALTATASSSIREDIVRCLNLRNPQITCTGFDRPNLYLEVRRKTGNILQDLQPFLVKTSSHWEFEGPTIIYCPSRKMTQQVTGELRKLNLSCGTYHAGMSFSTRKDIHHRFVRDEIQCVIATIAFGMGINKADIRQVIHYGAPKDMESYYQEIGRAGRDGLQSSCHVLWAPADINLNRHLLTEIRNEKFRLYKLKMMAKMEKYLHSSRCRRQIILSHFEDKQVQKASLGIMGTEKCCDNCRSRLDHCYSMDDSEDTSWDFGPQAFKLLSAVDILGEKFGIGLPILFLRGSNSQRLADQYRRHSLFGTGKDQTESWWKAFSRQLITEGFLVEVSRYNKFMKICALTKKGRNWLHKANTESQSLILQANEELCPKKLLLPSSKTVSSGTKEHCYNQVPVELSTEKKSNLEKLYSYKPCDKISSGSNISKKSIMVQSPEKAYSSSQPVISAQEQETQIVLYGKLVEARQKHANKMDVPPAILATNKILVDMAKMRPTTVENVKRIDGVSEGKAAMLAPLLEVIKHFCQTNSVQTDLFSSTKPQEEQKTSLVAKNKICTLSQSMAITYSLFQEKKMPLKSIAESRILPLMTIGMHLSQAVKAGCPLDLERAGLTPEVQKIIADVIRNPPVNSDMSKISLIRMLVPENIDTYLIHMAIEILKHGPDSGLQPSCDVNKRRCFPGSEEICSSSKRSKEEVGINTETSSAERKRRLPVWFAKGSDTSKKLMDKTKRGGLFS

SMILES	AC50 [1] [µM]	AC50 ([2]; Homo sapiens, HT-29, 168 h) [nM]	AC50 [3] [µM]	AC50 ([4]; Homo sapiens, HCT-116, 168 h) [nM]	AC50 [2] [nM]	AC50 [4] [nM]
C=CC(=O)N1CCc2nn(-c3ccc(C4CC4)c(F)c3O)c3c2C(C1)N(C(=O)c1cnc(OC(F)(F)F)c(F)c1N)CC3 (stereo not shown) [Compound 258, 1-(5-(4-amino-5-fluoro-6-(trifluoromethoxy)nicotinoyl)-2-(4-cyclopropyl-3-fluoro-2-hydroxyphenyl)-2,3,4,5,5a,6,8,9-octahydro-7H-1,2,5,7-tetraazabenzo[cd]azulen-7-yl)prop-2-en-1-one]	0.005 to 0.015	> 3000	0.015 to 0.055	1 to 100	–	–
C=CC(=O)N1CC(OC2CC(C#N)C2)c2nn(-c3ccc(C4CCC4)cc3)c3c2C(C1)N(C(=O)c1cnc(C(F)(F)F)cc1N)CC3 (stereo not shown) [Compound 198, 3-((7-acryloyl-5-(4-amino-6-(trifluoromethyl)nicotinoyl)-2-(4-cyclobutylphenyl)-3,4,5,5a,6,7,8,9-octahydro-2H-1,2,5,7-tetraazabenzo[cd]azulen-9-yl)oxy)cyclobutane-1-carbonitrile]	< 0.0015	> 3000	0.005 to 0.015	1 to 100	–	–
C=CC(=O)N1CCc2nn(-c3ccc(C4CC4)cc3O)c3c2C(C1)N(C(=O)c1cnc(Cl)cc1N)CC3 (stereo not shown) [Compound 196, 1-(5-(4-amino-6-chloronicotinoyl)-2-(4-cyclopropyl-2-hydroxyphenyl)-2,3,4,5,5a,6,8,9-octahydro-7H-1,2,5,7-tetraazabenzo[cd]azulen-7-yl)prop-2-en-1-one]	< 0.0015	> 3000	0.005 to 0.015	1 to 100	–	–
C=CC(=O)N1CCc2nn(-c3ccc(C4CC4)cc3C(F)(F)F)c3c2C(C1)N(C(=O)c1cnc(C(F)(F)F)cc1N)CC3 (stereo not shown) [Compound 256, 1-(5-(4-amino-6-(trifluoromethyl)nicotinoyl)-2-(4-cyclopropyl-2-(trifluoromethyl)phenyl)-2,3,4,5,5a,6,8,9-octahydro-7H-1,2,5,7-tetraazabenzo[cd]azulen-7-yl)prop-2-en-1-one]	0.015 to 0.055	> 3000	> 0.055	250 to 500	–	–
C=CC(=O)N1CC(C)c2nn(-c3ccc(C4CC4)cc3O)c3c2C(C1)N(C(=O)c1cnc(C(F)(F)F)cc1N)CC3 (stereo not shown) [Compound 195, 1-(5-(4-amino-6-(trifluoromethyl)nicotinoyl)-2-(4-cyclopropyl-2-hydroxyphenyl)-9-methyl-2,3,4,5,5a,6,8,9-octahydro-7H-1,2,5,7-tetraazabenzo[cd]azulen-7-yl)prop-2-en-1-one]	< 0.0015	–	0.005 to 0.015	–	> 3000	1 to 100
C=CC(=O)N1CCc2nn(-c3ccc(C4CCC4)cc3O)c3c2C(C1)N(C(=O)c1cc(O)c2scnc2c1)CC3 (stereo not shown) [Compound 153, 1-(2-(4-cyclobutyl-2-hydroxyphenyl)-5-(7-hydroxybenzo[d]thiazole-5-carbonyl)-2,3,4,5,5a,6,8,9-octahydro-7H-1,2,5,7-tetraazabenzo[cd]azulen-7-yl)prop-2-en-1-one]	< 0.0015	> 3000	0.0015 to 0.005	1 to 100	–	–
C=CC(=O)N1CC(C)c2nn(-c3ccc(C4CC4)cc3O)c3c2C(C1)N(C(=O)c1cnc(C(F)(F)F)cc1N)CC3 (stereo not shown) [Compound 189, 1-(5-(4-amino-6-(trifluoromethyl)nicotinoyl)-2-(4-cyclopropyl-2-hydroxyphenyl)-9-methyl-2,3,4,5,5a,6,8,9-octahydro-7H-1,2,5,7-tetraazabenzo[cd]azulen-7-yl)prop-2-en-1-one]	< 0.0015	> 3000	0.005 to 0.015	1 to 100	–	–
C=CC(=O)N1CCOc2nn(-c3ccc(C45CC(C4)C5)cc3)c3c2C(C1)N(C(=O)c1ccc(Br)c2[nH]cnc12)CC3 (stereo not shown) [Compound 43, 1-(2-(4-(bicyclo[1.1.1]pentan-1-yl)phenyl)-5-(7-bromo-1H-benzo[d]imidazole-4-carbonyl)-2,3,4,5,5a,6,8,9-octahydro-7H-10-oxa-1,2,5,7-tetraazacycloocta[cd]inden-7-yl)prop-2-en-1-one]	< 0.0015	> 3000	0.005 to 0.015	1 to 100	–	–
C=CC(=O)N1CCc2nn(-c3ccc(C4CC4)cc3)c3c2C(C1)N(C(=O)c1ccn(CC(F)(F)F)c(=O)c1)CC3 (stereo not shown) [Compound 68, 4-(7-acryloyl-2-(4-cyclopropylphenyl)-3,4,5,5a,6,7,8,9-octahydro-2H-1,2,5,7-tetraazabenzo[cd]azulene-5-carbonyl)-1-(2,2,2-trifluoroethyl)pyridin-2(1H)-one]	> 0.055	> 3000	> 0.055	> 1000	–	–
CC(C)c1ccc(-n2nc3c4c2CCN(C(=O)c2ccc(Br)c5[nH]cnc25)C4CN(C(=O)/C=C/CN(C)C)CC3)cc1 (stereo not shown) [Compound 15, 1-(5-(7-bromo-1H-benzo[d]imidazole-4-carbonyl)-2-(4-isopropylphenyl)-2,3,4,5,5a,6,8,9-octahydro-7H-1,2,5,7-tetraazabenzo[cd]azulen-7-yl)-4-(dimethylamino)but-2-en-1-one]	0.015 to 0.055	> 3000	> 0.055	250 to 500	–	–
C=CC(=O)N1CCc2nn(-c3ccc(C4CCC4)c(O)c3)c3c2C(C1)N(C(=O)c1cnc(C(F)(F)F)c(O)c1)CC3 (stereo not shown) [Compound 91, 1-(2-(4-cyclobutyl-3-hydroxyphenyl)-5-(5-hydroxy-6-(trifluoromethyl)nicotinoyl)-2,3,4,5,5a,6,8,9-octahydro-7H-1,2,5,7-tetraazabenzo[cd]azulen-7-yl)prop-2-en-1-one]	< 0.0015	> 3000	0.005 to 0.015	250 to 500	–	–
C=CC(=O)N1CCc2nn(-c3ccc(C4CCC4)cc3O)c3c2C(C1)N(C(=O)c1cnc(Cl)cc1N)CC3 (stereo not shown) [Compound 144, 1-(5-(4-amino-6-chloronicotinoyl)-2-(4-cyclobutyl-2-hydroxyphenyl)-2,3,4,5,5a,6,8,9-octahydro-7H-1,2,5,7-tetraazabenzo[cd]azulen-7-yl)prop-2-en-1-one]	< 0.0015	> 3000	0.0015 to 0.005	1 to 100	–	–
C=CC(=O)N1CCc2nn(-c3ccc(C45CC(C4)C5)c(F)c3)c3c2C(C1)N(C(=O)c1ccc(Br)c2[nH]cnc12)CC3 (stereo not shown) [Compound 84, 1-(2-(4-(bicyclo[1.1.1]pentan-1-yl)-3-fluorophenyl)-5-(7-bromo-1H-benzo[d]imidazole-4-carbonyl)-2,3,4,5,5a,6,8,9-octahydro-7H-1,2,5,7-tetraazabenzo[cd]azulen-7-yl)prop-2-en-1-one]	0.0015 to 0.005	> 3000	0.015 to 0.055	1 to 100	–	–
C=CC(=O)N1CCc2nn(-c3ccc(C4CC4)cc3)c3c2C(C1)N(C(=O)c1ccc(C(F)(F)F)nn1)CC3 (stereo not shown) [Compound 115, 1-(2-(4-cyclopropylphenyl)-5-(6-(trifluoromethyl)pyridazine-3-carbonyl)-2,3,4,5,5a,6,8,9-octahydro-7H-1,2,5,7-tetraazabenzo[cd]azulen-7-yl)prop-2-en-1-one]	0.015 to 0.055	> 3000	–	500 to 1000	–	–
C=CC(=O)N1CCc2nn(-c3ccc(C(C)C)cc3)c3c2C(C1)N(C(=O)c1ccc2c(cnn2C(F)(F)F)c1)CC3 (stereo not shown) [Compound 11, 1-(2-(4-isopropylphenyl)-5-(1-(trifluoromethyl)-1H-indazole-5-carbonyl)-2,3,4,5,5a,6,8,9-octahydro-7H-1,2,5,7-tetraazabenzo[cd]azulen-7-yl)prop-2-en-1-one]	> 0.055	> 3000	–	> 1000	–	–
C=CC(=O)N1CCOCc2nn(-c3ccc(C(C)C)cc3C)c3c2C(C1)N(C(=O)c1ccc(Br)c(O)c1)CC3 (stereo not shown) [Compound 36, 1-(5-(4-bromo-3-hydroxybenzoyl)-2-(4-isopropyl-2-methylphenyl)-2,4,5,5a,6,8,9,11-octahydro-10-oxa-1,2,5,7-tetraazacyclonona[cd]inden-7(3H)-yl)prop-2-en-1-one]	0.015 to 0.055	> 3000	–	500 to 1000	–	–
